Data taken from patent publication US20060211651A1, “Persulfated oligosaccharide acting on selectins and chemokine” (Taisho Pharmaceutical Co., Ltd., priority 2002, published 2006).

Columns and labels:
[1] = target: secondary lymphoid tissue chemokine; experiment: BIAcore surface plasmon resonance, immobilized glycosaminoglycan vs SLC; type: binding; details: for Kd / koff / kon: GAG immobilized, 25° C.
Protocol: (§1) Affinity kinetics of the interaction between various CS/DS chains and each of L-selectin, P-selectin, CD44 and chemokine were examined by surface plasmon resonance using BIAcore™ biosensor [manufactured by BIAcore AB].
(§2) All experiments were performed at 25° C. At stages of washing and dissociation, buffer C (20 mM HEPES-NaOH, 0.15M NaCl, 1 mM CaCl2, 1 mM MgCl2, pH6.8) was used as a running buffer.
(§3) First, about 1.8 to 2.0 kiloresonance unit (1 kiloresonance unit=1 ng/mm^2) of streptavidin were covalently immobilized onto B1 sensor chip via a primary amine group using an amine coupling kit [manufactured by Amercham-Bioscience] according to the instruction provided by the manufacturer. The remaining activated groups were blocked with 150 μl of 1M ethanolamine-HCl (pH8.5). Then, each glycosaminoglycan which had been biotinylated at a reducing end was injected to a sensor tip surface by using EZ-link™ biotin-LC-hydrazide [manufactured by Pierce] so as to obtain about 150 resonance unit of an immobilization level, according to the method of Sadir et al. [J. Biol. Chem., 276, 8288-8296 (2001); all teachings of which are hereby incorporated by reference].
(§4) Binding assay was performed by injecting continuously each of various concentrations of secondary lymphoid tissue chemokine, γ-interferon inducible protein-10, stromal cell-derived factor-1β, monomeric L-selectin [manufactured by Genzyme-Techne], monomeric P-selectin [manufactured by Genzyme-Techne] and monomeric CD44, to a glycosaminoglycan-coupled sensor tip at a flow rate of 30 μl/min for 0 to 90 seconds, and then injecting a running buffer thereto. A response in resonance unit was recorded as a function of a time.
(§5) A sensor tip surface was regenerated with 300 μl of 1 M NaCl when chemokine or CD44 was used, or regenerated with 300 μl of 1 M NaCl, and additional 100 μl of 50 mM EDTA (pH8.0), when selectin was used. As a result of regeneration of a sensor tip surface, a remarkable change in a baseline was not observed.
(§6) An affinity kinetic parameter was determined by BIAevaluation 3.0 software [manufactured by Pharmacia Biosensor] using a single site binding model. […] In FIG. 6 and Table 3, SLC denotes secondary lymphoid tissue chemokin, IP-10 denotes γ-interferon inducible protein-10, SDF-1β denotes stromal cell-derived factor-1β, CS E denotes chondroitin sulfate E, and CS A denotes chondroitin sulfate A. In addition, in Table 3, Kd value for the interaction between monomeric CD44 and chondroitin sulfate E is a value calculated from a binding amount at equilibrium, and Kd value of the interaction between CD44 and hyaluronic acid is a value calculated using CD44-Ig.

[2] = target: T1, stromal cell-derived factor-1β (Homo sapiens, UniProt P48061); experiment: BIAcore surface plasmon resonance, immobilized glycosaminoglycan vs SDF-1β; type: binding; details: for Kd / koff / kon: GAG immobilized, 25° C.
T1 construct: purchased Pepro Tech
T1 sequence (P48061 22-93): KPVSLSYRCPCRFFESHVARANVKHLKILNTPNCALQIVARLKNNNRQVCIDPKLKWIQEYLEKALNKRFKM
Protocol: as §1, §2, §3, §4, §5, §6

L-selectin-Ig [3] = target: T2, L-selectin-Ig (Homo sapiens, UniProt P14151); experiment: Binding inhibition assay (ELISA), biotinylated versican to L-selectin-Ig, various concentrations; details: dose-dependent, FIG. 2 panel A
T2 construct: purchased R & D Systems Inc
T2 sequence (P14151 with tags, fused parts or gaps limits assumed): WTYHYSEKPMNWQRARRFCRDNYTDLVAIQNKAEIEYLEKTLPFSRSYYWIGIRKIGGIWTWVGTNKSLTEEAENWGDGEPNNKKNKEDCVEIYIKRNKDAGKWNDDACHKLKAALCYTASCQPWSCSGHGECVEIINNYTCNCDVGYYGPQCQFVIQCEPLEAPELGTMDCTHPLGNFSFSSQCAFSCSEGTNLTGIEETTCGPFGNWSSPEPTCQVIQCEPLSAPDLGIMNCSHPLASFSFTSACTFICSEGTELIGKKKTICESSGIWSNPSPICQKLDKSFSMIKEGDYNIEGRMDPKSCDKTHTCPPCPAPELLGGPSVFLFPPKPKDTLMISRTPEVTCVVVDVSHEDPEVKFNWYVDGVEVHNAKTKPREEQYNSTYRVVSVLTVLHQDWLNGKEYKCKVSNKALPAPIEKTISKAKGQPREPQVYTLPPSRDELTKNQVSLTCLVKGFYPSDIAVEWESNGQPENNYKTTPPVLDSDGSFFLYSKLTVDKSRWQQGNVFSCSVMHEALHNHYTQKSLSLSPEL
Protocol: (§7) Inhibition assay of binding between versican and each of L-selectin, P-selectin and CD44 was performed as follows. First, each well on a 96 well flat bottom microtiter plate (Coster EIA/RIA plate No. 3690) was coated with L-selectin-Ig (3 μg/ml), P-selectin-Ig (4 μg/ml) or CD44-Ig (0.25 μg/ml) by a conventional procedure. […] The plate was incubated at room temperature for 2 hours. Thereafter, the plate was washed with the buffer A, and enzyme-linked immunosorbent assay was performed in the same manner as described in Kawashima, H. et al. [J. Biol. Chem., 275, 35448-35456 (2000)]. Binding was determined by measuring absorbance at 620 nm using alkaline phosphatase-conjugated streptavidin and Blue Phos™ substrate.

P-selectin-Ig = experiment: Binding inhibition assay (ELISA), biotinylated versican to P-selectin-Ig, various concentrations; details: dose-dependent, FIG. 2 panel B
Protocol: as §7

[4] = target: γ-interferon inducible protein-10 (Homo sapiens, UniProt P02778); experiment: ELISA, biotinylated versican binding to IP-10 in presence of glycosaminoglycan; details: 100 μg/ml glycosaminoglycan; FIG. 5
Sequence of γ-interferon inducible protein-10 (P02778 22-98): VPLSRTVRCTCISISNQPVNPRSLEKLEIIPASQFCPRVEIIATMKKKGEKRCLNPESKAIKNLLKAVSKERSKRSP
Protocol: (§8) A well of a 96 well flat bottom microtiter plate was coated with BSA (5 μg/ml), anti-versican monoclonal antibody 2B1 (5 μg/ml), CD44-Ig (7 μg/ml), L-selectin-Ig (3 μg/ml), P-selectin-Ig (3 μg/ml) or chemokine (1 μg/ml), and then blocked with a phosphate buffered physiological saline containing 3% by weight of BSA. As the above chemokine, secondary lymphoid tissue chemokine, γ-interferon inducible protein-10, platelet factor 4, stromal cell-derived factor-1β [manufactured by Pepro Tech] and stromal cell-derived factor-1α [manufactured by Pepro Tech] were used.
(§9) Thereafter, the plate was washed with the buffer A, and enzyme-linked immunosorbent assay was performed in the same manner as that of the previous report [Kawashima, H. et al., J. Biol. Chem., 275, 35448-35456 (2000)]. Binding was determined by measuring absorbance at 620 nm using alkaline phosphatase-conjugated streptavidin and Blue Phos™ substrate. In FIG. 5, expression of an abscissa axis is the same as that of FIG. 4.

platelet factor 4 = target: T3, platelet factor 4 (Homo sapiens, UniProt P02776); experiment: ELISA, biotinylated versican binding to PF4 in presence of glycosaminoglycan; details: 100 μg/ml glycosaminoglycan; FIG. 5
T3 sequence (P02776 32-101): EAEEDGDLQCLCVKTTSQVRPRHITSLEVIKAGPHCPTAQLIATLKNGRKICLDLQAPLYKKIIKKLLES
Protocol: as §8, §9

[5] = target: T1, stromal cell-derived factor-1β; experiment: ELISA, biotinylated versican binding to SDF-1β in presence of glycosaminoglycan; details: 100 μg/ml glycosaminoglycan; FIG. 5
Protocol: as §8, §9

L-selectin-Ig [6] = target: T2, L-selectin-Ig; experiment: ELISA, biotinylated versican binding to L-selectin-Ig in presence of glycosaminoglycan; details: 100 μg/ml glycosaminoglycan; FIG. 5
Protocol: as §8, §9

Kd [1]	Kd [2]	koff [2]	kon [2]	inhibition of binding between biotinylated versican and L-selectin-Ig (L-selectin-Ig [3])	inhibition of binding between biotinylated versican and P-selectin-Ig (P-selectin-Ig)	inhibition of binding between biotinylated versican and γ-interferon inducible protein-10 [4]	inhibition of binding between biotinylated versican and platelet factor 4 (platelet factor 4)	inhibition of binding between biotinylated versican and stromal cell-derived factor-1β [5]	inhibition of binding between biotinylated versican and L-selectin (L-selectin-Ig [6])	interaction with immobilized glycosaminoglycan (sensorgram) [2]	Substance	koff [1]	kon [1]	interaction with immobilized glycosaminoglycan (sensorgram) [1]
101 nM	86.3 nM	0.00304 s⁻¹	35200 M⁻¹ s⁻¹	inhibited	inhibited	inhibited	inhibited	inhibited	inhibited		chondroitin polysulfate [CPS]	0.00244 s⁻¹	24200 M⁻¹ s⁻¹	
				not inhibited	not inhibited					did not interact	chondroitin sulfate A [CS A]			did not interact
85.8 nM	293 nM	0.0053 s⁻¹	18100 M⁻¹ s⁻¹	inhibited	inhibited	inhibited	inhibited	inhibited	inhibited	bound	chondroitin sulfate E [CS E]	0.00356 s⁻¹	41500 M⁻¹ s⁻¹	bound
32.2 nM				inhibited	inhibited	inhibited	inhibited	inhibited	inhibited		dermatan polysulfate [DPS]	0.000278 s⁻¹	8640 M⁻¹ s⁻¹	
